Test system in the first data set: not listed separately
Briefly: In vivo oral administration pharmacokinetics in mice. Set-up: AUC: concentration or dose not given beside the values. The conditions noted are these: mouse. An excerpt:
Based on the in vitro activity results, representative compounds were selected for in vivo pharmacokinetic studies.
In Vivo Oral Administration—Pharmacokinetic Results in Mice: […]
The AUC is the area under the concentration-time curve, a measure of exposure. For orientation: Cmax means the maximum level reached in the sampled fluid or tissue. A word on the Tmax: it is the time from dosing to the highest level. For the compound `Cc1nn(-c2cncc(F)c2)c(C)c1-c1cc(N2CCOC[C@H]2C)nc(-c2cc(F)cc3[nH]ccc23)n1` [Compound A11], the AUC was 15200 ng·h/mL, the highest level (Cmax) was 1470 ng/mL, the Tmax stood at 3.3 h and the half-life was 3 h.
The corresponding values for `Cc1nn(-c2cncc(F)c2)c(C)c1-c1cc(N2CCOC[C@H]2C)nc(-c2cccc3[nH]ccc23)n1` [Compound A17] are 8210 ng·h/mL, 815 ng/mL, 1.75 h and 2.3 h.
The corresponding values for `Cc1nn(-c2cncc(F)c2)c(C)c1-c1cc(N2CCOC[C@H]2C)nc(-c2ccnc3[nH]ccc23)n1` [Compound A19] are 1730 ng·h/mL, 331 ng/mL, 1 h and 2.4 h.
The corresponding values for `CNc1nc2ccccc2n1-c1nc(-c2c(C)nn(-c3cncc(F)c3)c2C)cc(N2CCOC[C@H]2C)n1` [Compound B1] are 8750 ng·h/mL, 1450 ng/mL, 2.8 h and 4.3 h.

Test system in another data set: not listed separately
Briefly: In vitro stability in mouse liver microsome. The conditions noted are these: liver microsomes, read-out: Mouse liver microsome t1/2. It counts as in vitro ADME. An excerpt: (§1) Based on the in vitro activity results, representative compounds were selected for assay studies on the stability in liver microsome, and the results were as follows.
Regarding `Cc1nn(-c2cncc(F)c2)c(C)c1-c1cc(N2CCOC[C@H]2C)nc(-c2cc(F)cc3[nH]ccc23)n1` [Compound A11], the half-life was found to be 2.23 h.
The same measure, in the same setting: with `Cc1nn(-c2cncc(F)c2)c(C)c1-c1cc(N2CCOC[C@H]2C)nc(-c2cccc3[nH]ccc23)n1` [Compound A17] the figure was 1.02 h.

A further data set deals with MV4-11 (leukemia). Kind of data set: Cell proliferation inhibition in vitro, CellTiter-Glo, MV4-11. The class given is cell-based. The conditions noted are these: Homo sapiens, MV4-11, 120 h, read-out: MV4-11/IC50/μM. As for the experimental part:
(§2) By detecting the effect of compounds on cell activity in vitro in tumor cell lines TOV21G (ovarian cancer) and MV4-11 (leukemia), the inhibitory effect of compounds on cell proliferation was studied in this assay.
(§3) TOV21G cells and MV4-11 cells were purchased from American Type Culture Collection (ATCC).
MV-4-11 cells were cultured in IMDM medium (containing 20% of FBS). About 10,000 cells were inoculated in each well of a 96-well culture plate, and treated by adding different concentrations (0-10 μM) of compounds to be assayed. Each group was assayed in triplicate. Blank wells (containing medium only) and control wells (inoculated cells without being treated with drug) were set. Cells were cultured for 120 hours. 40 μL of Cell Titer-Glo solutions were added to each well, and the cells were incubated with shaking for 20 min in the dark. 100 μL of solution was transferred from each well to a 96-well blank plate, and the luminescence value was read by Biotek Synergy HI multifunctional microplate reader. Inhibition rate (%)=100%×(control well−assay well)/(control well−blank well)
In general terms: ATP-based viability assays read luminescence as a measure of living cells.
Take `Cc1nn(-c2cncc(F)c2)c(C)c1-c1nc(-c2cccc3[nH]ccc23)nc(N2CCOC[C@H]2C)n1` [Compound C1]: the IC50 came to 0.903 µM.

Still in this data set, the particulars now being: Homo sapiens; MV4-11 cells, 120 hours, CellTiter-Glo; read-out: MV4-11/IC50/μM.
Take `Cc1nn(-c2cncc(F)c2)c(C)c1-c1cc(N2CCOC[C@H]2C)nc(-c2cc(F)cc3[nH]ccc23)n1` [Compound A11]: the IC50 was 0.214 µM.
Still for that read-out and setting: with `Cc1nn(-c2cncc(F)c2)c(C)c1-c1cc(N2CCOC[C@H]2C)nc(-c2cccc3[nH]ccc23)n1` [Compound A17] the figure was 0.19 µM; with `Cc1nn(-c2cncc(F)c2)c(C)c1-c1cc(N2CCOC[C@H]2C)nc(-c2ccnc3[nH]ccc23)n1` [Compound A19], 0.312 µM; with `Cc1nn(-c2cncc(C(F)F)c2)c(C)c1-c1cc(N2CCOC[C@H]2C)nc(-c2ccnc3[nH]ccc23)n1` [Compound A21], 0.332 µM.
On to `Cc1nn(-c2cncc(O)c2)c(C)c1-c1cc(N2CCOC[C@H]2C)nc(-c2cccc3[nH]ccc23)n1` [Compound A23], for which the IC50 was 0.175 µM.
Consider `Cc1nn(-c2cncc(C(N)=O)c2)c(C)c1-c1cc(N2CCOC[C@H]2C)nc(-c2cccc3[nH]ccc23)n1` [Compound A24], for which the IC50 was found to be 0.18 µM.
Regarding `Cc1nn(-c2cnccn2)c(C)c1-c1cc(N2CCOC[C@H]2C)nc(-c2cc(F)cc3[nH]ccc23)n1` [Compound A25], the IC50 was determined as 0.46 µM.
`CNc1nc2ccccc2n1-c1nc(-c2c(C)nn(-c3cncc(F)c3)c2C)cc(N2CCOC[C@H]2C)n1` [Compound B1]: the IC50 was determined as 0.231 µM.
Still for that read-out and setting: with `CNc1nc2ccccc2n1-c1nc(-c2c(C)nn(-c3ccc(C#N)nc3)c2C)cc(N2CCOC[C@H]2C)n1` [Compound B2] the figure was 0.133 µM; with `CNc1nc2ccccc2n1-c1nc(-c2c(C)nn(-c3cncc(Cl)c3)c2C)cc(N2CCOC[C@H]2C)n1` [Compound B3], 0.303 µM.

The next data set deals with ATR kinase (Homo sapiens, UniProt Q13535). Briefly: Assay of ATR kinase activity (time-resolved fluorescence, phosphorylation of p53-derived protein). It counts as biochemical.
Chain of ATR kinase (Q13535 whole entry): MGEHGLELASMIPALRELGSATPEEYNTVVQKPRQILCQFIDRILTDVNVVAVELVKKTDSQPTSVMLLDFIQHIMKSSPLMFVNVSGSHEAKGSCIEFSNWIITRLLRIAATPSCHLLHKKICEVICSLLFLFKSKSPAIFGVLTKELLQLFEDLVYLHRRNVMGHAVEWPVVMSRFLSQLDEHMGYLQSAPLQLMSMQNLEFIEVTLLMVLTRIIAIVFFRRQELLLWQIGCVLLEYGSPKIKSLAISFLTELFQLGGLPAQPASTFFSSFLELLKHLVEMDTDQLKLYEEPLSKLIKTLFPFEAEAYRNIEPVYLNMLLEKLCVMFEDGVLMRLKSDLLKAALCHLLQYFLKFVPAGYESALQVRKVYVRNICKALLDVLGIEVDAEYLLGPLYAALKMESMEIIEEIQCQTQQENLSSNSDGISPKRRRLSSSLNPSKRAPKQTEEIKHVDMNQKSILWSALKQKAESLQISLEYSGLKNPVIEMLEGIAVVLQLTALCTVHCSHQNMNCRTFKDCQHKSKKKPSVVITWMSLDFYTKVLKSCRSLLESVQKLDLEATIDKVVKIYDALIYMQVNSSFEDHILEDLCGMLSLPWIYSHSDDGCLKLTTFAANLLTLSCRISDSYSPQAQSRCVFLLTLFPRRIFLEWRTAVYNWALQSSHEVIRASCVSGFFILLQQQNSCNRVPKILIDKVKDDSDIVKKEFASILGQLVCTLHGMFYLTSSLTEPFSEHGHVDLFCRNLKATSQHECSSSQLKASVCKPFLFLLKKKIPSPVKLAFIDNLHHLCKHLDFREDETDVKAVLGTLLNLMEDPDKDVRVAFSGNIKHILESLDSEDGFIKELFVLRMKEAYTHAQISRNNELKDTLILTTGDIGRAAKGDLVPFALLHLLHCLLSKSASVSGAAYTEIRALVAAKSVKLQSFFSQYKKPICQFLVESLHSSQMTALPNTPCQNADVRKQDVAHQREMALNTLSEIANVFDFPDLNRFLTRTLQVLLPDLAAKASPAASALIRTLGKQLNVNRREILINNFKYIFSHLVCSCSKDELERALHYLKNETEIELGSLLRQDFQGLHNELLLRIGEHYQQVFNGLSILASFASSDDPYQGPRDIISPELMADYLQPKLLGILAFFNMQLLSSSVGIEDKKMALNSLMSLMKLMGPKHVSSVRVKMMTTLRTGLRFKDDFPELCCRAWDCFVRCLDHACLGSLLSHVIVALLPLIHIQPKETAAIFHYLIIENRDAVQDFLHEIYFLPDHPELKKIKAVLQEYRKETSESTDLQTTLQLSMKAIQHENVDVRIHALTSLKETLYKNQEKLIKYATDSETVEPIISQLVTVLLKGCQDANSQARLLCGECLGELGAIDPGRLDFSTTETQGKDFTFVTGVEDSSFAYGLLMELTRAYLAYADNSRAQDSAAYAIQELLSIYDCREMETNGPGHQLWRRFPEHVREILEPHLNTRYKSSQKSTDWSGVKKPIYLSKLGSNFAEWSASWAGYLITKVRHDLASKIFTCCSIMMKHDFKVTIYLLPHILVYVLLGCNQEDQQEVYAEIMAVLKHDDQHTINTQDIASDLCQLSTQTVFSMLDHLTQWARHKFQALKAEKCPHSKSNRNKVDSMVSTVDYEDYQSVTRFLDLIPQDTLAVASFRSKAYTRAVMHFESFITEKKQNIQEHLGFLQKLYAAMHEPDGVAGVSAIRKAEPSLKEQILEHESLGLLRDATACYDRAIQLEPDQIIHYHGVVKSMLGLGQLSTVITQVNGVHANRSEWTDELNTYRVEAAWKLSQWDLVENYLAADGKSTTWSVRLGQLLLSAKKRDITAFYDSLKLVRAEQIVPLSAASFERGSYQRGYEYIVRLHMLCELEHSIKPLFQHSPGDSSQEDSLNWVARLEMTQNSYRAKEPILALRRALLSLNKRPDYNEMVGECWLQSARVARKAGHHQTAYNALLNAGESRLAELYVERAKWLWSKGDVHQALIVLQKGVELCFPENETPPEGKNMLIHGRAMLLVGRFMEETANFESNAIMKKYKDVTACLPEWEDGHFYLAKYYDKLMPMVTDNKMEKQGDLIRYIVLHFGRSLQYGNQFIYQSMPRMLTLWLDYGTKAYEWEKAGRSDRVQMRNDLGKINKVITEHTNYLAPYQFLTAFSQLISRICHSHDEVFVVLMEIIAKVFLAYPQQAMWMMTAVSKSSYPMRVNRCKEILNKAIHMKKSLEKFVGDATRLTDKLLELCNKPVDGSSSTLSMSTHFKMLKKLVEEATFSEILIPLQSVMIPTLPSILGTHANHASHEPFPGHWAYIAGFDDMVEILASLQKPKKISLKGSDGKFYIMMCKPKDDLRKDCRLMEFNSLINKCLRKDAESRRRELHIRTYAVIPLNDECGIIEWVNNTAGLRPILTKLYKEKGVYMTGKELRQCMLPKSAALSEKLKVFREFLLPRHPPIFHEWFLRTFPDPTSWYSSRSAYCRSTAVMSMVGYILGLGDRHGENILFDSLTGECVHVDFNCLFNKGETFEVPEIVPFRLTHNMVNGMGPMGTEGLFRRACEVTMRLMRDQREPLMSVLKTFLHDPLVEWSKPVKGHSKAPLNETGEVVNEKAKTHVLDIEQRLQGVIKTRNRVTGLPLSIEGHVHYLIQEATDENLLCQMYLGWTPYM
Chain of ATR kinase (Q8WXE1 whole entry partner): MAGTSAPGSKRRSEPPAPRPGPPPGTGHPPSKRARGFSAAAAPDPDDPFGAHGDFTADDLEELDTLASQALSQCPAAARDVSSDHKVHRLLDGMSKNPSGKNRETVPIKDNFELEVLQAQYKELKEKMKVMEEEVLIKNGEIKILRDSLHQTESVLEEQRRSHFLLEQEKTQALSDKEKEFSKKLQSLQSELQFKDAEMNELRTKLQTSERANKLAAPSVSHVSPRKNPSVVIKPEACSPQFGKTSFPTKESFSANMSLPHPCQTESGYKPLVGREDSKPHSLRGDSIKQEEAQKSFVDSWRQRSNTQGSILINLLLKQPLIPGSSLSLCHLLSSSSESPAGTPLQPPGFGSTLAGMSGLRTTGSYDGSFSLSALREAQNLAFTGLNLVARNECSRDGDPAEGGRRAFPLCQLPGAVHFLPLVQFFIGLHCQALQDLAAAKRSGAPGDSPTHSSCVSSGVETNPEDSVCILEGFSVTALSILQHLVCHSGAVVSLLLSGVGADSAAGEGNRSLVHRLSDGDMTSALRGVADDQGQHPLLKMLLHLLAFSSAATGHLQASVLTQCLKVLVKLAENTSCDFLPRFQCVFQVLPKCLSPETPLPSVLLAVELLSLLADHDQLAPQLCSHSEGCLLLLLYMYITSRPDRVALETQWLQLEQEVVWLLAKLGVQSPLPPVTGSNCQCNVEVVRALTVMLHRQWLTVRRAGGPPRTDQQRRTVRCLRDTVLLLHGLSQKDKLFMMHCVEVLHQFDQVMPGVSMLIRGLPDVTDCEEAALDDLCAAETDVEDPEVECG
Settings: not given
The procedure: Biotinylated protein derived from p53 (Eurofins, art. No.: 14-952) was phosphorylated with ATR kinase. The amount of phosphorylated protein was determined by time-resolved fluorescence in this assay. The amount of phosphorylated protein was detected by anti-p53-phospho-(serine 15)-K-specific antibody (Cisbio, art. No.: 61GSTDLA) and d2 labeled anti-GST antibody (Cisbio, art. No. 61P08KAE). Before the assay, the following working solutions were formulated as required: 1×reaction buffer (20 mM HEPES PH8.0, 1% glycerol, 0.01% Brij-35), dilution buffer (20 mM HEPES PH8.0, 1% glycerol, 0.01% Brij-35, 5 mM DTT and 1% BSA), stop solution (20 mM HEPES PH8.0, 1% glycerol, 0.01% Brij-35, 250 mM EDTA), detection buffer (50 mM HEPES pH7.0, 150 mM NaCl, 267 mM KF, 0.1% sodium cholate, 0.01% Tween-20, 0.0125% sodium azide). The reagents used above were purchased from Sigma or Invitrogen, except for those whose manufacturers were mentioned.
Operations were as follows:
4× serially diluted compound solutions were prepared with 1× reaction buffer to give 9 compound solutions with different concentrations, and 2.5 μL of the 4× serially diluted compound solutions were added to a 384-well analysis plate (784075, Greiner). 4×p53 substrate working solution (40 nM) was prepared with 1× reaction buffer, and 2.5 μL of the 4×p53 substrate working solution was added to a 384-well analysis plate. 4×ATR/ATRIP working solution (12.8 ng/μL) was prepared with dilution buffer, and 2.5 μL of the 4×pATR/ATRIP working solution was added to a 384-well analysis plate. 4×ATP working solution (2 mM) was prepared with deionized water, and 2.5 μL of the 4×ATP working solution was added to a 384-well analysis plate. The plates were incubated at room temperature in dark for 30 minutes. 5 μL of stop solution was added to the 384 analysis plates. Finally, 5 μL of assay mixture (0.084 ng/μL Anti-phospho-p53(ser15)-K and 5 ng/μL Anti-GST-d2) was added to the 384 well analysis plates, and incubated at room temperature overnight. The fluorescence signal was detected with ENVISION (Perkinelmer) instrument (excitation wavelength: 320 nm, emission wavelength: 665 nm and 615 nm). The inhibition rate in each well was calculated by the fluorescence intensity value in each well:ER (Emission Ratio)=(Fluorescence intensity at 665 nm/Fluorescence intensity at 615 nm); inhibition rate=(ER of positive−ER of assay compound)/(ER of positive−ER of negative)×100%. IC50 values of compounds were calculated by standard software for parameter fitting (GraphPad Prism 6.0).
The compound `Cc1nn(-c2cncc(F)c2)c(C)c1-c1cc(N2CCOC[C@H]2C)nc(-c2cc(F)cc3[nH]ccc23)n1` [Compound A11] displayed an IC50 of 10 nM.
The compound `Cc1nn(-c2cncc(F)c2)c(C)c1-c1cc(N2CCOC[C@H]2C)nc(-c2cccc3[nH]ccc23)n1` [Compound A17] came in with an IC50 of 5 nM.
On the same count and under the same terms, as for `Cc1nn(-c2cncc(F)c2)c(C)c1-c1cc(N2CCOC[C@H]2C)nc(-c2ccnc3[nH]ccc23)n1` [Compound A19], the figure is 2 nM.
Same read-out and setting: with `Cc1nn(-c2cncc(C(F)F)c2)c(C)c1-c1cc(N2CCOC[C@H]2C)nc(-c2ccnc3[nH]ccc23)n1` [Compound A21] the figure was 6 nM; with `Cc1nn(-c2cncc(O)c2)c(C)c1-c1cc(N2CCOC[C@H]2C)nc(-c2cccc3[nH]ccc23)n1` [Compound A23], 3 nM.
Consider `Cc1nn(-c2cncc(C(N)=O)c2)c(C)c1-c1cc(N2CCOC[C@H]2C)nc(-c2cccc3[nH]ccc23)n1` [Compound A24], for which the IC50 is 1 nM.
The same measure, in the same setting: with `Cc1nn(-c2cnccn2)c(C)c1-c1cc(N2CCOC[C@H]2C)nc(-c2cc(F)cc3[nH]ccc23)n1` [Compound A25] the figure was 7 nM; with `CNc1nc2ccccc2n1-c1nc(-c2c(C)nn(-c3cncc(F)c3)c2C)cc(N2CCOC[C@H]2C)n1` [Compound B1], 11 nM.
Turning to `CNc1nc2ccccc2n1-c1nc(-c2c(C)nn(-c3ccc(C#N)nc3)c2C)cc(N2CCOC[C@H]2C)n1` [Compound B2], the IC50 came out at 22 nM.
The same measure, in the same setting: with `CNc1nc2ccccc2n1-c1nc(-c2c(C)nn(-c3cncc(Cl)c3)c2C)cc(N2CCOC[C@H]2C)n1` [Compound B3] the figure was 49 nM; with `Cc1nn(-c2cncc(F)c2)c(C)c1-c1nc(-c2cccc3[nH]ccc23)nc(N2CCOC[C@H]2C)n1` [Compound C1], 18 nM.

The test system of another data set is TOV21G (ovarian cancer). Briefly: Cell proliferation inhibition in vitro, CellTiter-Glo, TOV21G. It counts as cell-based. The conditions noted are these: Homo sapiens, TOV21G, 120 h, read-out: TOV21G/IC50/μM. The procedure: as §2, §3
TOV21G cells were cultured in MCDB105/M199 medium (containing 15% of FBS), and used for assaying when the cell confluence reached 85% or more. About 1000 cells were inoculated in each well of a 96-well culture plate, and cultured for 24 hours. Different concentrations (0-10 μM) of compounds to be assayed were added to treat the cells. Each group was assayed in triplicate. Blank wells (containing medium only) and control wells (inoculated cells without being treated with drug) were set. Cells were cultured for 120 hours. 40 μL of Cell Titer-Glo solutions (Promega, #G7573) were added to each well, and the cells were incubated with shaking for 20 min in the dark. 100 μL of solution was transferred from each well to a 96-well blank plate (Corning, #3917), and the luminescence value was read by Biotek Synergy H1 multifunctional microplate reader.
On to `Cc1nn(-c2cncc(F)c2)c(C)c1-c1nc(-c2cccc3[nH]ccc23)nc(N2CCOC[C@H]2C)n1` [Compound C1], for which the IC50 is 0.349 µM.

Staying with this data set, now noted: Homo sapiens; TOV21G cells, 120 hours, CellTiter-Glo; read-out: TOV21G/IC50/μM.
For the compound `Cc1nn(-c2cncc(F)c2)c(C)c1-c1cc(N2CCOC[C@H]2C)nc(-c2cc(F)cc3[nH]ccc23)n1` [Compound A11], the IC50 is 0.291 µM.
On the same count and under the same terms, as for `Cc1nn(-c2cncc(F)c2)c(C)c1-c1cc(N2CCOC[C@H]2C)nc(-c2cccc3[nH]ccc23)n1` [Compound A17], the figure is 0.196 µM; as for `Cc1nn(-c2cncc(F)c2)c(C)c1-c1cc(N2CCOC[C@H]2C)nc(-c2ccnc3[nH]ccc23)n1` [Compound A19], 0.237 µM.
`Cc1nn(-c2cncc(C(F)F)c2)c(C)c1-c1cc(N2CCOC[C@H]2C)nc(-c2ccnc3[nH]ccc23)n1` [Compound A21]: the IC50 is 0.537 µM.
On the same count and under the same terms, as for `Cc1nn(-c2cncc(O)c2)c(C)c1-c1cc(N2CCOC[C@H]2C)nc(-c2cccc3[nH]ccc23)n1` [Compound A23], the figure is 0.24 µM; as for `Cc1nn(-c2cncc(C(N)=O)c2)c(C)c1-c1cc(N2CCOC[C@H]2C)nc(-c2cccc3[nH]ccc23)n1` [Compound A24], 0.22 µM; as for `Cc1nn(-c2cnccn2)c(C)c1-c1cc(N2CCOC[C@H]2C)nc(-c2cc(F)cc3[nH]ccc23)n1` [Compound A25], 0.53 µM.
Still for that read-out and setting: as for `CNc1nc2ccccc2n1-c1nc(-c2c(C)nn(-c3cncc(F)c3)c2C)cc(N2CCOC[C@H]2C)n1` [Compound B1], the figure is 0.194 µM; as for `CNc1nc2ccccc2n1-c1nc(-c2c(C)nn(-c3ccc(C#N)nc3)c2C)cc(N2CCOC[C@H]2C)n1` [Compound B2], 0.278 µM.
Take `CNc1nc2ccccc2n1-c1nc(-c2c(C)nn(-c3cncc(Cl)c3)c2C)cc(N2CCOC[C@H]2C)n1` [Compound B3]: the IC50 was 0.411 µM.

Test system in a further data set: not listed separately
Kind of data set: In vitro stability in human liver microsome. It counts as in vitro ADME. The settings on record: liver microsomes, read-out: Human liver microsome t1/2.
Excerpt: as §1
In the case of `Cc1nn(-c2cncc(F)c2)c(C)c1-c1cc(N2CCOC[C@H]2C)nc(-c2cc(F)cc3[nH]ccc23)n1` [Compound A11], the half-life was found to be 0.733 h.
Regarding `Cc1nn(-c2cncc(F)c2)c(C)c1-c1cc(N2CCOC[C@H]2C)nc(-c2cccc3[nH]ccc23)n1` [Compound A17], the half-life is 1.08 h.

These data come from patent publication US12692257B2, “2,4,6-tri-substituted pyrimidine compounds as ATR kinase inhibitors” (BEIJING TIDE PHARMACEUTICAL CO., LTD., priority 2020, dated 2026).
